Reference: patent publication US11535851B2, “Reagents for treatment of hepatitis B virus (HBV) infection and use thereof” (priority 2016, dated 2022)

Tests used:
Assay type in all cases: in vivo
[1] = system: HBV genotype C; experiment: Serum HBV DNA in HBV-infected PXB chimeric mouse model; details: treatment arm of daily ETV only; FIG. 7
Protocol: (§1) The in vivo effect of the anti-HBV shmiR or shRNA-expressing AAV particles (as illustrated in FIG. 5) was determined in a PXB chimeric mouse model infected de novo with HBV inoculum. Inhibition of various HBV parameters was assessed: (i) expression of HBV viral transcripts, (ii) extracellular HbsAg, HBcAg and HBeAg, (iii) extracellular and intracellular HBV DNA, and (iv) formation of cccDNA.
(§2) Chimeric PXB mice (PXB-mice®) were obtained from PhoenixBio. All mice were housed individually at 23±5° C. and a humidity of 55±25% humidity, exposed to 12 hours-light/dark cycles and fed and watered ad libitum throughout the experiment. […] To determine baseline HBV infection, blood was taken from mice at days −28, −21, −14 and −7 (i.e., 0, 7, 14 and 21 days post inoculation, respectively), from which human albumin (h-Alb) concentration and serum concentrations of HBV DNA, HBsAg and HBeAg were determined. These permit detection of liver damage in test animals—no adverse reactions were detected.
Remaining whole blood was centrifuged to separate serum for HBV DNA quantification, HbsAg, HBcAg and HBeAg analysis. […] Synthetic HBV DNA was used to determine the concentration of the HBV DNA standard which was then used in quantification of the serum HBV DNA level. […]

[2] = system: HBV genotype C; experiment: Serum HBsAg in HBV-infected PXB chimeric mouse model; details: PXB mice, 91 day study; FIG. 8
Protocol: as §1, §2
(§3) Serum HBsAg and HBeAg concentrations were determined using ChemiLuminescence ImmunoAssay (CLIA) e.g., as developed by Abbott ([…]® SYSTEM). […]
(§4) Following administration of the treatment (day 0), animals were then incubated for a further 91 days. […] HBeAg levels were measured every other week through Day 70 and then weekly thereafter until the conclusion of the 91 day experiment.

[3] = system: HBV genotype C; experiment: Serum HBeAg in HBV-infected PXB chimeric mouse model
Protocol: as §1, §2, §3, §4

[4] = system: HBV viral transcripts; experiment: Liver HBV RNA levels by RT-QPCR in PXB chimeric mouse model; details: FIG. 11
Source text: After the completion of blood sampling on Day 91, all the surviving animals were kept under isoflurane anesthesia and sacrificed by cardiac puncture and exsanguination. Once sacrificed, whole livers were harvested from mice and weighed. A slice of liver of 3 to 5 mm in thickness was obtained from left lateral lobe and cut into cubes approximately 1 to 2 mm on a side. These liver cubes were transferred into a labelled tube and immersed in RNAlater® solution (Ambion, Thermo Fisher Scientific Inc., Waltham, Mass., USA) as quickly as possible. The liver samples were incubated in ≥5 volumes of RNAlater® overnight at 4° C. to allow the solution to penetrate the tissue. After the incubation, the RNAlater® solution was removed and the liver pieces were stored at −80° C. for subsequent quantification of the various hepatic HBV DNA and RNAs as well as expression levels of recombinant AAV derived shRNA or shmiR RNAs.
Using primer/probe sets that are located near each of the RNAi-induced cleavage sites, the levels of HBV RNA was assessed by RT-QPCR (FIG. 11).

[5] = system: HBV genotype C; experiment: Intracellular (liver) HBV DNA by quantitative PCR in PXB chimeric mouse model; details: entecavir or pegylated interferon alone; FIG. 12, left panel
[6] = system: HBV cccDNA; experiment: Liver HBV cccDNA by real-time PCR in PXB chimeric mouse model; details: ETV; FIG. 12, right panel
Protocol: HBV-infected mice treated with saline served as the negative controls. […] For the anti-HBV ddRNAi treatment groups, ssAAV8-HBV-shRNAx3-v1, scAAV8-HBV-shRNAx3-v1 or ssAAV8-HBV-shmiRx3-v1 was administered once at a dose of 2×10E+13 vg/kg by a low pressure tail vein injection at Day 0. Co-treated animals started daily ETV at Day 1 or were dosed the first time with PEG-IFN on Day 4
After the completion of blood sampling on Day 91, all the surviving animals were kept under isoflurane anesthesia and sacrificed by cardiac puncture and exsanguination. Once sacrificed, whole livers were harvested from mice and weighed. A slice of liver of 3 to 5 mm in thickness was obtained from left lateral lobe and cut into cubes approximately 1 to 2 mm on a side. […] After the incubation, the RNAlater® solution was removed and the liver pieces were stored at −80° C. for subsequent quantification of the various hepatic HBV DNA and RNAs as well as expression levels of recombinant AAV derived shRNA or shmiR RNAs.
To determine the level of hepatic HBV DNA following treatment, HBV DNA was extracted from frozen RNAlater®-preserved liver tissue using the DNeasy® Blood & Tissue Kits (Qiagen K. K., Tokyo, Japan). The DNA was dissolved in 200 μL nuclease-free water, after which the concentration of the DNA solution was determined using BioPhotometer 6131 (Eppendorf Co., Ltd., Tokyo, Japan). […]

C=C1[C@H](CO)[C@@H](O)C[C@@H]1n1cnc2c(=O)[nH]c(N)nc21 [entecavir]
drop in serum HBV DNA levels [1]: 2.63 log | drop in HBsAg levels [2]: 0.46 log | drop in HBeAg levels ([3]; PXB mice, 91 day study, FIG. 9): 0.37 log | drop in HBeAg levels ([3]; entecavir only): 0.37 log | reduction of HBV RNA levels / HBV transcripts ([4]; monotherapy, through 13 weeks of treatment, RT-QPCR): ~50% | HBV RNA levels (liver) ([4]; transcripts corresponding to shmiR-6, shmiR-15 and shmiR-12): only modestly reduced | drop in intracellular DNA levels [5]: 2 logs | reduction of cccDNA [6]: slightly more than a one log reduction
